Like-named read-outs stand apart in the source and are kept apart here. Positions of bridges follow the written chain, without caps; N, C: chain ends. Residues, ends and D or L forms follow the SMILES beside them.
Experiments:
[1] = target: T1, natriuretic peptide receptors with guanylate cyclase activity (Homo sapiens, UniProt P16066); assay: cGMP production in human Hela cells; format: cell-based
T1 construct: Hela cells express high levels of natriuretic peptide receptors with guanylate cyclase activity; endogenous in cells; host or cells: HeLa (human cervix epithelial adenocarcinoma)
T1 sequence (P16066 33-1061): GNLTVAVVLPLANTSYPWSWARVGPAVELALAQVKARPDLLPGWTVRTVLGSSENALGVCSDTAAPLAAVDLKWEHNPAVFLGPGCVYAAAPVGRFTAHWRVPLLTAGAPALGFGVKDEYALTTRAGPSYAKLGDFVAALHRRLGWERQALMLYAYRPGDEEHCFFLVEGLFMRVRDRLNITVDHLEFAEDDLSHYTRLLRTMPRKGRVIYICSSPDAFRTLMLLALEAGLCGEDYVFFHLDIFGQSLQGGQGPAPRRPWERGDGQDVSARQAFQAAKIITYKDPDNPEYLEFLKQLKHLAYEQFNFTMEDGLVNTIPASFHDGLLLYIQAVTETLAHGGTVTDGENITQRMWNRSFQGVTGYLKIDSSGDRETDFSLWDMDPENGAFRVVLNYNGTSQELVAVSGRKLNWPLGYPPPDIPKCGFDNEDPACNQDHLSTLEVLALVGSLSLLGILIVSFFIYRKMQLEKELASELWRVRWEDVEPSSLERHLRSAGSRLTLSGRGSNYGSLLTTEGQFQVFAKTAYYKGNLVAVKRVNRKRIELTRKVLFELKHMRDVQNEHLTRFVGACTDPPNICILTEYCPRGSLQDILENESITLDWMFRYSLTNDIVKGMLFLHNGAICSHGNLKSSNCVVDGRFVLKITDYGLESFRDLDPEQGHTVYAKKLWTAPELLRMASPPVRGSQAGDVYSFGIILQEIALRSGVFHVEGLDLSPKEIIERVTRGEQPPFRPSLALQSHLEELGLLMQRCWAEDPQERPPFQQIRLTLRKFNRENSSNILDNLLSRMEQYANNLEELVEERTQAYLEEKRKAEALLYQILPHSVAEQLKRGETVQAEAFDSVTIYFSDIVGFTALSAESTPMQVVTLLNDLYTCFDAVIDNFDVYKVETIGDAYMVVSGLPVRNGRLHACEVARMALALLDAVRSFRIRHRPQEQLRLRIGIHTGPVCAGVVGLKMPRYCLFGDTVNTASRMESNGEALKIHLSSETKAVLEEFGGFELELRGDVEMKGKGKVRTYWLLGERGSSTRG
Experimental: For in vitro activity studies, a human cervix epithelial adenocarcinoma cell line was used. Hela cells express high levels of natriuretic peptide receptors with guanylate cyclase activity.
One day prior cGMP experiments, cells are seeded in 48-wells plate (5×10^4 cells per well) and incubated overnight. The day of the experiment cells are washed twice in serum-free media and then incubated with or without NP derivatives or native ANP or BNP for one hour, in presence of 3-isobutyl-1-methylxanthine to prevent cGMP degradation. Incubation is terminated by removing the assay medium and by adding HCl to the cells for 10 minutes. The supernatants were then collected, centrifuged and cGMP levels are assessed using the direct cGMP EIA kit from Sigma.

NPR receptors = assay: Binding to guinea pig adrenal gland membranes by displacement of 125I-rANP
Experimental: The potency of NP derivatives is evaluated as their ability to bind NPR receptors in guinea pig adrenal glands and to elevate cGMP levels in a rat primary lung fibroblasts assay. Others cell lines can be used to perform these in vitro assays such as aortic smooth muscle cells, glomeruli mesangial cells and adrenal cells. Human, rat, and ginea pig cell lines or other species cell lines can be used with a preference for human cell lines.
Membranes for binding studies are prepared as follow. Adrenal glands were collected from anesthetized normal Duncan Hartley Guinea Pig and homogenized using a polytron in 50 mM Tris-HCl buffer containing 150 mM NaCl, 5 mM MgCl2, 5 mM MnCl2; pH 7.4 at 25° C. The homogenate was centrifuged for 10 minutes at 39,000×g (4° C.). The pellet was resuspended and washed. Finally, the membranes were resuspended in the same buffer supplemented with 1 mM Na2EDTA+0.2% BSA. Protein concentration is measured using the BCA protein assay kit (Pierce). The binding assay is done by incubation of membranes with 0.016 nM ^125I-rANF and increasing concentrations of either NP peptides or NP derivatives (10^−5-10^−11 M) for 60 minutes at 4° C. All assays were done in duplicate. Separation of bound and free radioactive rANF was achieved by rapid filtration through polyethylenimine-treated Whatman GF/C filters soaked in assay buffer. Filters were washed, dried and counted for radioactivity in a gamma-counter.

[2] = literature values; cited from earlier work
[3] = human Hela cells, one hour incubation, with 3-isobutyl-1-methylxanthine, read-out: EC50 (M), increase of cGMP production

CC[C@H](C)[C@@H]1NC(=O)[C@H](CCCNC(=N)N)NC(=O)[C@H](CC(=O)O)NC(=O)[C@H]([C@@H](C)CC)NC(=O)[C@H](CCCNC(=N)N)NC(=O)CNC(=O)CNC(=O)[C@H](Cc2ccccc2)NC(=O)[C@@H](N)CSSC[C@@H](C(=O)N[C@@H](CC(N)=O)C(=O)N[C@@H](CO)C(=O)N[C@@H](Cc2ccccc2)C(=O)N[C@@H](CCCNC(=N)N)C(=O)N[C@@H](Cc2ccc(O)cc2)C(N)=O)NC(=O)CNC(=O)[C@H](CC(C)C)NC(=O)CNC(=O)[C@H](CO)NC(=O)[C@H](CCC(N)=O)NC(=O)[C@H](C)NC(=O)CNC1=O [Example 13] (H-CFGGRIDRIGAQSGLGCNSFRY-NH2; disulfide 1-17)
EC50 [1, 3]: 2.72e-08 M

CC[C@H](C)[C@@H]1NC(=O)[C@H](CCCNC(=N)N)NC(=O)[C@H](CC(=O)O)NC(=O)[C@H](CCSC)NC(=O)[C@H](CCCNC(=N)N)NC(=O)CNC(=O)CNC(=O)[C@H](Cc2ccccc2)NC(=O)[C@@H](N)CSSC[C@@H](C(=O)N[C@@H](CC(N)=O)C(=O)N[C@@H](CO)C(=O)N[C@@H](Cc2ccccc2)C(=O)N[C@@H](CCCNC(=N)N)C(=O)N[C@@H](Cc2ccc(O)cc2)C(N)=O)NC(=O)CNC(=O)[C@H](CC(C)C)NC(=O)CNC(=O)[C@H](CO)NC(=O)[C@H](CCC(N)=O)NC(=O)[C@H](C)NC(=O)CNC1=O [Example 17] (H-CFGGRMDRIGAQSGLGCNSFRY-NH2; disulfide 1-17)
EC50 [1, 3]: 2.21e-08 M

CC[C@H](C)[C@@H]1NC(=O)[C@H](CCCNC(=N)N)NC(=O)[C@H](CC(=O)O)NC(=O)[C@H](CCSC)NC(=O)[C@H](CCCCN)NC(=O)[C@H](CCCNC(=N)N)NC(=O)CNC(=O)[C@H](Cc2ccccc2)NC(=O)[C@@H](NC(=O)CNC(=O)[C@H](CO)NC(=O)CNC(=O)[C@H](CCC(N)=O)NC(=O)[C@@H](NC(=O)[C@H](CCSC)NC(=O)[C@H](CCCCN)NC(=O)[C@@H]2CCCN2C(=O)[C@@H](N)CO)C(C)C)CSSC[C@@H](C(=O)N[C@@H](CCCCN)C(=O)N[C@H](C(=O)N[C@@H](CC(C)C)C(=O)N[C@@H](CCCNC(=N)N)C(=O)N[C@@H](CCCNC(=N)N)C(=O)N[C@@H](Cc2c[nH]cn2)C(N)=O)C(C)C)NC(=O)CNC(=O)[C@H](CC(C)C)NC(=O)CNC(=O)[C@H](CO)NC(=O)[C@H](CO)NC(=O)[C@H](CO)NC(=O)[C@H](CO)NC1=O [Example 21]
Ki (NPR receptors; displacement of 125I-ANF, read-out: apparent inhibition constant (Ki value)): 4.8 nM | Ki (NPR receptors; displacement of 125I-rANF, text gives the same Ki in M, read-out: KI (inhibition constant)): 4.86 nM | EC50 (NPR receptors; read-out: EC50 (M), concentration at 50% of inhibition, displacement of 0.016 nM 125I-rANF, 60 minutes at 4° C.): 5.41e-09 M | EC50 [1]: 1.99e-08 M

human BNP: native human Brain Natriuretic Peptide, 32 amino acid peptide
in vivo half-life [2]: 12.7 min

Reference: patent publication US20050176641A1, “Long lasting natriuretic peptide derivatives” (CONJUCHEM, INC., priority 2000, published 2005)
